Results on one substance are retold here after US20170368181A1, “Polymeric Nanoparticle” (The Provost Fellows and Scholars of the College of the Holy …, priority 2010, published 2017).

The conditions of series [1]: 20° C.; cited from earlier work.
Series [2] has as its system NR4A2 mRNA. Put plainly: PGE2-induced NR4A2 mRNA in SW1353 cells, qRT-PCR. It counts as cell-based, human. The following applies: PGE2 1 μM, 1 hour. The procedure: (§1) Cell assay: SW1353 human chondrocytes (ATCC) were maintained in RPMI 1640 medium supplemented with 10% Foetal Calf Serum, L-Glutamine and 1% antibiotics. SW1353 cells were seeded 2.5×10^5 cells per well into 6-well plates. After 24 hours media was replaced with serum free media (SFM) and incubated over night. sCT (10 μM) with either PGE2(1 μM) or IL-1β (10 ng/ml) were added to cells in SFM for 1 hour. Dexamethasone (Dex, 10 μM) was the positive control for the down-regulation of NR4A2. Untreated controls were treated in an identical manner, but with serum-free medium alone. RNA was isolated from SW1353 cells.
RNA Extraction: Media was removed from the cells and 1 mL of TRIzol® (Invitrogen) was added to each well. Cells were homogenised by pipetting the added TRIzol® up and down for 8-10 times. […] Pellet was then resuspended in an appropriate volume of RNASE/DNASE free water and RNA in each sample was quantified at A260. […]
Mix to be added to each reaction tube is 4 μL of 5× 1st Strand Buffer, 2 μL of 0.1 M DTT, 1 μL of RNase Out and 1 μL MMLV. […] NR4A and MMP1, 3, 9 and 13 levels were measured by qRT-PCR and expression levels were normalized to GAPDH levels.
SW1353 cells were treated with sCT alone or polymeric nanoparticles comprising hyaluronic acid, chitosan, and sCT and PGE2 for 1 hour. Total RNA was extracted and assayed for NR4A2 mRNA levels by quantitative RT-PCR. […]
(In general: Real-time PCR tracks product formation cycle by cycle.)

For series [3], the system named is MMP 13. Put plainly: IL-1β-induced MMP 13 mRNA in SW1353 cells, qRT-PCR. It counts as cell-based, human. The procedure:
as §1
Mix to be added to each reaction tube is 4 μL of 5× 1st Strand Buffer, 2 μL of 0.1 M DTT, 1 μL of RNase Out and 1 μL MMLV. Taq Cat# 10342-020 (this contains 0.1 M DTT, 5× 1st S. B.). NR4A and MMP1, 3, 9 and 13 levels were measured by qRT-PCR and expression levels were normalized to GAPDH levels.
Effects of sCT and the nanoparticle on MMP mRNA levels were also investigated. […] Both sCT, HA, and the polymeric nanoparticle down regulated MMP 13 by 47%, 31% and 88% (FIG. 6B). MMPs 1 and 3 were also down regulated. […] Dexamethasone, which is known to down regulate NR4A2 and is used for the treatment of rheumatoid arthritis, was used as a positive control in all experiments. […]

Series [4] deals with NR4A2. Put plainly: NR4A2 expression in ankle joints of K/BxN sera-induced mice. It counts as in vivo, mouse. The following applies: intra-peritoneal delivery. From the text:
On day 4 after K/BxN serum transfer, mice were sacrificed, and their hind paws above the knee joint were harvested for histology to assess the effects of drug treatments on inflammation and bone and cartilage degradation. The histology sections were stained with hematoxylin and eosin (H&E) and Saffarin O and scored blindly under 3 different categories (i) inflammation (synovitis infiltration and pannus formation), (ii) cartilage erosion and (iii) bone erosion. RNA was also isolated from both the ankle joint and knee joint tissue to measure expression of NR4A biomarkers.
RNA was isolated from the ankle joints of control and ‘inflamed’ K/BxN mice to measure expression of NR4A biomarkers. In K/BxN sera-induced mice with no treatment (therefore showing inflammation), high levels of NR4A1, NR4A2 and NR4A3 were over expressed, compared to naïve mice with no serum transfer (no inflammation (FIG. 20).
Expression of NR4A2 was measured in all groups (FIG. 21). […] Histological sections of the knee joint were scored by an observer blinded to the treatment under 3 different criteria (i) inflammation (synovitis infiltration and pannus formation), (ii) cartilage erosion and (iii) bone erosion on a scale of 0-3 (0, none; 1, minimal invasion of meniscus; 2, partial invasion of meniscus; 3, severe invasion of meniscus). […]

Take salmon calcitonin [sCT]: the water solubility result in series [1] is “about 1 mg/ml”. The “inhibition of PGE2 induced NR4A2 transcript levels” value in series [2] came out at 49%. In series [3], the “down regulation of MMP 13 mRNA” value amounted to 47%. Also, in series [4], the “NR4A2 expression in the ankle joints” value is “reduce NR4A2 expression”.
